Source: US7985731B2, “Sugar chain added GLP-1 peptide” (Otsuka Chemical Holdings Co., Ltd., priority 2007, dated 2011)
Peptide text beside a SMILES is read from it. * marks the point of attachment. X1 = CC(=O)N[C@@H]1[C@@H](O)[C@H](O[C@@H]2O[C@H](CO)[C@@H](O[C@@H]3O[C@H](CO[C@H]4O[C@H](CO)[C@@H](O)[C@H](O)[C@@H]4O[C@@H]4O[C@H](CO)[C@@H](O[C@@H]5O[C@H](CO[C@]6(C(=O)O)C[C@H](O)[C@@H](NC(C)=O)[C@H]([C@H](O)[C@H](O)CO)O6)[C@H](O)[C@H](O)[C@H]5O)[C@H](O)[C@H]4NC(C)=O)[C@@H](O)[C@H](O[C@H]4O[C@H](CO)[C@@H](O)[C@H](O)[C@@H]4O[C@@H]4O[C@H](CO)[C@@H](O[C@@H]5O[C@H](CO[C@]6(C(=O)O)C[C@H](O)[C@@H](NC(C)=O)[C@H]([C@H](O)[C@H](O)CO)O6)[C@H](O)[C@H](O)[C@H]5O)[C@H](O)[C@H]4NC(C)=O)[C@@H]3O)[C@H](O)[C@H]2NC(C)=O)[C@@H](CO)O[C@H]1NC(=O)C*

Legend:
[1] = tested on: C57BL/6JJcl mice; assay: Test Example 7: Oral Glucose Tolerance Test (OGTT); format: in vivo
Procedure: After 30 minutes, a glucose solution was orally administered at a dose of 1 mg/g. Blood was collected from the orbits before the glucose administration and 30 minutes, 60 minutes and 120 minutes after the glucose administration. Blood-sugar levels were measured using ACCU-CHEK Aviva (Roche Diagnostics).
After the oral administration of the glucose solution to the mice fasted overnight, blood was collected over time, and blood-sugar levels were measured.
The correlation between the oligosaccharide chain structure and the activity was studied in mouse OGTT.

[2] = tested on: db/db (BKS.Cg-+Lepr db/+Lepr db/Jcl) mice; assay: Test Example 8: effect of lowering blood-sugar levels in diabetes model mice; format: in vivo; details: 9 nmol/kg intraperitoneal
Procedure: The oligosaccharide chain added GLP-1 peptide prepared in Example 2, 3, 4, 21 or 23 or the GLP-1 prepared in Comparative Example 1 in a PBS solution (9 nmol/10 ml) was intraperitoneally administered at a dose of 10 ml/kg to BKS.Cg−+Lepr^db/+Lepr^db/Jcl mice (10 week old, male). Blood was collected from the orbits before the compound administration and 30 minutes, 60 minutes, 120 minutes, 180 minutes and 300 minutes after the compound administration. Blood-sugar levels were measured using ACCU-CHEK Aviva (Roche Diagnostics).
The db/db (BKS.Cg−+Lepr^db/+Lepr^db/Jcl) mice serving as diabetes model mice have a mutation in a receptor of leptin which is anorexigenic/energy metabolism-accelerating hormone and develops conditions such as obesity or hyperglycemia.
Blood-sugar levels were measured over time, and their effects of lowering blood-sugar levels were compared with that of the GLP-1 without oligosaccharide chain addition of Comparative Example 1.

[3] = 9 nmol/kg intraperitoneal 30 minutes before glucose 1 mg/g oral

Compound	effect of suppressing rise in blood-sugar levels in OGTT [1, 3]	efficacy relative to 30Cys GLP-1-disialo and 36Cys GLP-1-disialo at the same dose in OGTT ([1]; 0.9 nmol/kg intraperitoneal)	dose dependence of activity of suppressing rise in blood-sugar levels in OGTT ([1]; doses 0.9 nmol/kg and 0.09 nmol/kg intraperitoneal)	effect of lowering blood-sugar levels in db/db mice ([2]; 10-week-old male mice)	durability of effect of lowering blood-sugar levels in db/db mice ([2]; up to 300 minutes)	effect of suppressing rise in blood-sugar levels in OGTT ([1]; 0.9 nmol/kg intraperitoneal)	activity of suppressing rise in blood-sugar levels in OGTT relative to GLP-1 (times) ([1]; from doses giving equivalent effect, GLP-1 at 9 nmol/kg)
CC[C@H](C)[C@H](NC(=O)[C@H](Cc1ccccc1)NC(=O)[C@H](CCC(=O)O)NC(=O)[C@H](CCCCN)NC(=O)[C@H](C)NC(=O)[C@H](C)NC(=O)[C@H](CCC(N)=O)NC(=O)CNC(=O)[C@H](CCC(=O)O)NC(=O)[C@H](CC(C)C)NC(=O)[C@H](Cc1ccc(O)cc1)NC(=O)[C@H](CSCC(=O)N[C@@H]1O[C@H](CO)[C@@H](O[C@@H]2O[C@H](CO)[C@@H](O[C@@H]3O[C@H](CO[C@H]4O[C@H](CO)[C@@H](O)[C@H](O)[C@@H]4O[C@@H]4O[C@H](CO)[C@@H](O[C@@H]5O[C@H](CO[C@]6(C(=O)O)C[C@H](O)[C@@H](NC(C)=O)[C@H]([C@H](O)[C@H](O)CO)O6)[C@H](O)[C@H](O)[C@H]5O)[C@H](O)[C@H]4NC(C)=O)[C@@H](O)[C@H](O[C@H]4O[C@H](CO)[C@@H](O)[C@H](O)[C@@H]4O[C@@H]4O[C@H](CO)[C@@H](O[C@@H]5O[C@H](CO[C@]6(C(=O)O)C[C@H](O)[C@@H](NC(C)=O)[C@H]([C@H](O)[C@H](O)CO)O6)[C@H](O)[C@H](O)[C@H]5O)[C@H](O)[C@H]4NC(C)=O)[C@@H]3O)[C@H](O)[C@H]2NC(C)=O)[C@H](O)[C@H]1NC(C)=O)NC(=O)[C@H](CO)NC(=O)[C@@H](NC(=O)[C@H](CC(=O)O)NC(=O)[C@H](CO)NC(=O)[C@@H](NC(=O)[C@H](Cc1ccccc1)NC(=O)[C@@H](NC(=O)CNC(=O)[C@H](CCC(=O)O)NC(=O)[C@H](C)NC(=O)[C@@H](N)Cc1c[nH]cn1)[C@@H](C)O)[C@@H](C)O)C(C)C)C(=O)N[C@@H](C)C(=O)N[C@@H](Cc1c[nH]c2ccccc12)C(=O)N[C@@H](CC(C)C)C(=O)N[C@H](C(=O)N[C@@H](CCCCN)C(=O)NCC(=O)N[C@@H](CCCNC(=N)N)C(=O)NCC(=O)O)C(C)C [Example 1, 18Cys GLP-1-disialo] (H-HAEGTFTSDVSC(X1)YLEGQAAKEFIAWLVKGRG-OH)	strong effect of suppressing rise in blood-sugar levels	–	–	–	–	–	–
CC[C@H](C)[C@H](NC(=O)[C@H](Cc1ccccc1)NC(=O)[C@H](CCC(=O)O)NC(=O)[C@H](CSCC(=O)N[C@@H]1O[C@H](CO)[C@@H](O[C@@H]2O[C@H](CO)[C@@H](O[C@@H]3O[C@H](CO[C@H]4O[C@H](CO)[C@@H](O)[C@H](O)[C@@H]4O[C@@H]4O[C@H](CO)[C@@H](O[C@@H]5O[C@H](CO[C@]6(C(=O)O)C[C@H](O)[C@@H](NC(C)=O)[C@H]([C@H](O)[C@H](O)CO)O6)[C@H](O)[C@H](O)[C@H]5O)[C@H](O)[C@H]4NC(C)=O)[C@@H](O)[C@H](O[C@H]4O[C@H](CO)[C@@H](O)[C@H](O)[C@@H]4O[C@@H]4O[C@H](CO)[C@@H](O[C@@H]5O[C@H](CO[C@]6(C(=O)O)C[C@H](O)[C@@H](NC(C)=O)[C@H]([C@H](O)[C@H](O)CO)O6)[C@H](O)[C@H](O)[C@H]5O)[C@H](O)[C@H]4NC(C)=O)[C@@H]3O)[C@H](O)[C@H]2NC(C)=O)[C@H](O)[C@H]1NC(C)=O)NC(=O)[C@H](C)NC(=O)[C@H](C)NC(=O)[C@H](CCC(N)=O)NC(=O)CNC(=O)[C@H](CCC(=O)O)NC(=O)[C@H](CC(C)C)NC(=O)[C@H](Cc1ccc(O)cc1)NC(=O)[C@H](CO)NC(=O)[C@H](CO)NC(=O)[C@@H](NC(=O)[C@H](CC(=O)O)NC(=O)[C@H](CO)NC(=O)[C@@H](NC(=O)[C@H](Cc1ccccc1)NC(=O)[C@@H](NC(=O)CNC(=O)[C@H](CCC(=O)O)NC(=O)[C@H](C)NC(=O)[C@@H](N)Cc1c[nH]cn1)[C@@H](C)O)[C@@H](C)O)C(C)C)C(=O)N[C@@H](C)C(=O)N[C@@H](Cc1c[nH]c2ccccc12)C(=O)N[C@@H](CC(C)C)C(=O)N[C@H](C(=O)N[C@@H](CCCCN)C(=O)NCC(=O)N[C@@H](CCCNC(=N)N)C(=O)NCC(=O)O)C(C)C [Example 3, 26Cys GLP-1-disialo]	strong effect of suppressing rise in blood-sugar levels	about ½	dose-dependent activity of suppressing rise in blood-sugar levels	strong effect of lowering blood-sugar levels	effects of lowering blood-sugar levels were slightly weakened over time	–	–
CC[C@H](C)[C@H](NC(=O)[C@H](Cc1ccccc1)NC(=O)[C@H](CCC(=O)O)NC(=O)[C@H](CCCCN)NC(=O)[C@H](C)NC(=O)[C@H](C)NC(=O)[C@H](CCC(N)=O)NC(=O)CNC(=O)[C@H](CCC(=O)O)NC(=O)[C@H](CSCC(=O)N[C@@H]1O[C@H](CO)[C@@H](O[C@@H]2O[C@H](CO)[C@@H](O[C@@H]3O[C@H](CO[C@H]4O[C@H](CO)[C@@H](O)[C@H](O)[C@@H]4O[C@@H]4O[C@H](CO)[C@@H](O[C@@H]5O[C@H](CO[C@]6(C(=O)O)C[C@H](O)[C@@H](NC(C)=O)[C@H]([C@H](O)[C@H](O)CO)O6)[C@H](O)[C@H](O)[C@H]5O)[C@H](O)[C@H]4NC(C)=O)[C@@H](O)[C@H](O[C@H]4O[C@H](CO)[C@@H](O)[C@H](O)[C@@H]4O[C@@H]4O[C@H](CO)[C@@H](O[C@@H]5O[C@H](CO[C@]6(C(=O)O)C[C@H](O)[C@@H](NC(C)=O)[C@H]([C@H](O)[C@H](O)CO)O6)[C@H](O)[C@H](O)[C@H]5O)[C@H](O)[C@H]4NC(C)=O)[C@@H]3O)[C@H](O)[C@H]2NC(C)=O)[C@H](O)[C@H]1NC(C)=O)NC(=O)[C@H](Cc1ccc(O)cc1)NC(=O)[C@H](CO)NC(=O)[C@H](CO)NC(=O)[C@@H](NC(=O)[C@H](CC(=O)O)NC(=O)[C@H](CO)NC(=O)[C@@H](NC(=O)[C@H](Cc1ccccc1)NC(=O)[C@@H](NC(=O)CNC(=O)[C@H](CCC(=O)O)NC(=O)[C@H](C)NC(=O)[C@@H](N)Cc1c[nH]cn1)[C@@H](C)O)[C@@H](C)O)C(C)C)C(=O)N[C@@H](C)C(=O)N[C@@H](Cc1c[nH]c2ccccc12)C(=O)N[C@@H](CC(C)C)C(=O)N[C@H](C(=O)N[C@@H](CCCCN)C(=O)NCC(=O)N[C@@H](CCCNC(=N)N)C(=O)NCC(=O)O)C(C)C [Example 16, 20Cys GLP-1-disialo] (H-HAEGTFTSDVSSYC(X1)EGQAAKEFIAWLVKGRG-OH)	strong effect of suppressing rise in blood-sugar levels	–	–	–	–	–	–
CC[C@H](C)[C@H](NC(=O)[C@H](Cc1ccccc1)NC(=O)[C@H](CCC(=O)O)NC(=O)[C@H](CCCCN)NC(=O)[C@H](C)NC(=O)[C@H](C)NC(=O)[C@H](CCC(N)=O)NC(=O)CNC(=O)[C@H](CCC(=O)O)NC(=O)[C@H](CC(C)C)NC(=O)[C@H](Cc1ccc(O)cc1)NC(=O)[C@H](CSCC(=O)N[C@@H]1O[C@H](CO)[C@@H](O[C@@H]2O[C@H](CO)[C@@H](O[C@@H]3O[C@H](CO[C@H]4O[C@H](CO)[C@@H](O)[C@H](O)[C@@H]4O[C@@H]4O[C@H](CO)[C@@H](O[C@@H]5O[C@H](CO[C@]6(C(=O)O)C[C@H](O)[C@@H](NC(C)=O)[C@H]([C@H](O)[C@H](O)CO)O6)[C@H](O)[C@H](O)[C@H]5O)[C@H](O)[C@H]4NC(C)=O)[C@@H](O)[C@H](O[C@H]4O[C@H](CO)[C@@H](O)[C@H](O)[C@@H]4O[C@@H]4O[C@H](CO)[C@@H](O[C@@H]5O[C@H](CO[C@]6(C(=O)O)C[C@H](O)[C@@H](NC(C)=O)[C@H]([C@H](O)[C@H](O)CO)O6)[C@H](O)[C@H](O)[C@H]5O)[C@H](O)[C@H]4NC(C)=O)[C@@H]3O)[C@H](O)[C@H]2NC(C)=O)[C@H](O)[C@H]1NC(C)=O)NC(=O)[C@H](CO)NC(=O)[C@@H](NC(=O)[C@H](CC(=O)O)NC(=O)[C@H](CO)NC(=O)[C@@H](NC(=O)[C@H](Cc1ccccc1)NC(=O)[C@@H](NC(=O)CNC(=O)[C@H](CCC(=O)O)NC(=O)[C@H](C)NC(=O)[C@@H](N)Cc1c[nH]cn1)[C@@H](C)O)[C@@H](C)O)C(C)C)C(=O)N[C@@H](C)C(=O)N[C@@H](Cc1c[nH]c2ccccc12)C(=O)N[C@@H](CC(C)C)C(=O)N[C@H](C(=O)N[C@@H](CCCCN)C(=O)NCC(=O)N[C@@H](CSCC(=O)N[C@@H]1O[C@H](CO)[C@@H](O[C@@H]2O[C@H](CO)[C@@H](O[C@@H]3O[C@H](CO[C@H]4O[C@H](CO)[C@@H](O)[C@H](O)[C@@H]4O[C@@H]4O[C@H](CO)[C@@H](O[C@@H]5O[C@H](CO[C@]6(C(=O)O)C[C@H](O)[C@@H](NC(C)=O)[C@H]([C@H](O)[C@H](O)CO)O6)[C@H](O)[C@H](O)[C@H]5O)[C@H](O)[C@H]4NC(C)=O)[C@@H](O)[C@H](O[C@H]4O[C@H](CO)[C@@H](O)[C@H](O)[C@@H]4O[C@@H]4O[C@H](CO)[C@@H](O[C@@H]5O[C@H](CO[C@]6(C(=O)O)C[C@H](O)[C@@H](NC(C)=O)[C@H]([C@H](O)[C@H](O)CO)O6)[C@H](O)[C@H](O)[C@H]5O)[C@H](O)[C@H]4NC(C)=O)[C@@H]3O)[C@H](O)[C@H]2NC(C)=O)[C@H](O)[C@H]1NC(C)=O)C(=O)NCC(=O)O)C(C)C [Example 49, 18,36Cys GLP-1-disialo]	effect almost equivalent to that of the 36Cys GLP-1-disialo	–	–	–	–	almost equivalent to that of the GLP-1 at a dose of 9 nmol/kg	about 10 times
